Data as given in publication PMC5599605, “Production and Characteristics of a Novel Xylose- and Alkali-tolerant GH 43 β-xylosidase from Penicillium oxalicum for Promoting Hemicellulose Degradation” (Scientific Reports, 2017).
One block for each molecule: values may come before it.

Experiments:
Xyl43 [1] = biological target: T1, Xyl43 (Penicillium oxalicum, UniProt S7ZRR2); experiment: pNPX hydrolysis, residual activity; assay type: biochemical; settings: pNPX 1 mg/ml, pH 7.0, 50 °C, 30 min; D or L not stated
T1 construct: gene PDE_06306; full-length, 348 residues, no native signal peptide; alpha-factor secretion signal, C-terminal His6 tag kept; Pichia pastoris X-33 (pPICZalphaA)

Xyl43 [2] = biological target: T1, Xyl43; experiment: pNPX hydrolysis, Dixon plot; assay type: biochemical; settings: substrate pNPX 0.5 and 1 mg/ml, pH 7.0, 50 °C; end product; described as uncompetitive; Table 1 prints 28.9
[3] = substrate: O=[N+]([O-])c1ccc(O[C@@H]2OC[C@@H](O)[C@H](O)[C@H]2O)cc1; experiment: p-nitrophenol release, Lineweaver-Burk plot; assay type: biochemical, Penicillium oxalicum; settings: pH 7.0, 50 °C, 5 min, no xylose

% of initial activity at 20 mM (Xyl43 [1]): 88.7%
Molecule: OC1OC[C@H](O)[C@H](O)[C@H]1O (stereo partly drawn) [arabinose]

Ki (Xyl43 [2]): 28.1 mM
Molecule: OC1OC[C@@H](O)[C@H](O)[C@H]1O (stereo partly drawn) [xylose]

B1: Xyl43 (Penicillium oxalicum 114-2) (protein)
chain: MSSSTSSAPRPDPKPLVTHLYTADPSAHVFNNKIYIYPSHDRETDIAFNDNGDQYDMTDYHVFSMDAIDGPVTDSGVVLSAADVPWVSKQMWAPDAATKNGKYYLFFPARDHEGIFRIGVAVSDSPMGPFAPEKSYIPGSYSIDPAVFVDTDDSAYLYFGGIWGGQLQCWERADGSASASADPQMNGLVFNKSKSGPQEPSGAGVPALCPRVGQLSDDMLTFVSPPRELQILAPETGEPLAADDHERRFFEAAWMHKYKGKYYFSYSTGDSHYLVYATGDSPWGPFTYQGRILEPVLGWTTHHSIVEFQGKWYLFYHDCELSKGVDHLRSVKVREIVYDEEDKIHLA
notes: full-length, 348 residues, no native signal peptide; alpha-factor secretion signal, C-terminal His6 tag kept; Pichia pastoris X-33 (pPICZalphaA)
Km [3]: 4.05 mM
